This note sets out measurements from patent US10071973B2, “Crystalline isoxazole hydroxamic acid compounds” (priority 2016, dated 2018).

“Also recorded” adds a separate entry of the source. Like-named read-outs stand apart in the source and are kept apart here.

Data set [1] in a line: Hygroscopicity: mass change with relative humidity / deliquescence. The class given is physicochemical. The note with it: for hygroscopicity / deliquescence (in words): exposed to air or humidity, amorphous: humidity of about 80% or higher. The procedure:
FIG. 4. Isotherm Plots showing reversible mass changes of Crystalline Compound A over a Relative Humidity range of 0-90%.
Primary soller slit 2.5°; secondary soller slit 2.5°; divergent slit 0.6 mm; antiscatter slit 5.0 mm.

Data set [2] in a line: Stability (colour) of the solid on standing at ambient temperature. The class given is physicochemical. Particulars: ambient / room temperature, over time. An excerpt: This material required special handling and was not considered suitable for development as a pharmaceutical.
Data set [3] deals with P.A. PAO1 NB52019. Put plainly: MIC by broth microdilution (CLSI), P. aeruginosa. The class given is cell-based. The note with it: Pseudomonas aeruginosa, 35° C., 20 hours. The procedure: (§1) Bacterial isolates were cultivated from −70° C. frozen stocks by two consecutive overnight passages at 35° C. in ambient air on 5% blood agar (Remel, Lenexa, Kans.). Quality control strain, P. aeruginosa ATCC 27853, A. baumannii ATCC19606 and E. coli ATCC 25922 are from the American Type Culture Collection (ATCC; Rockville, Md.) and PAO1 was received from Dr. K. Poole.
(§2) Minimal Inhibitory Concentrations (MICs) were determined by the broth microdilution method in accordance with Clinical and Laboratories Institute (CLSI) guidelines (CLSI M100-S25, Performance Standards for Antimicrobial Susceptibility Testing; Twenty-fifth Informational Supplement). In brief, fresh bacterial overnight cultures were resuspended in sterile saline, adjusted to a 0.5 McFarland turbidity standard and then diluted 2000-fold in cation adjusted Mueller-Hinton Broth II (MHB; Remel BBL) to yield a final inoculum of approximately 5×10^5 colony-forming units (CFU)/mL. […] Following incubation, assay plates were read in a microtiter plate reader at 600 nm and visually inspected to confirm the MIC endpoint well with the OD value. The lowest concentration of the compound that prevented visible growth was recorded as the MIC. Performance of the assay was monitored by testing ciprofloxacin against the laboratory quality control strain in accordance with guidelines of the CLSI.

Data set [4] concerns E. coli ATCC 25922. Put plainly: MIC by broth microdilution (CLSI), E. coli, alone and with rifampicin. Particulars: Escherichia coli. The class given is cell-based. The procedure: as §1, §2
Data set [5] relates to A. baumannii ATCC19606. Briefly: MIC by broth microdilution (CLSI), A. baumannii, alone and with rifampicin. The class given is cell-based. The note with it: Acinetobacter baumannii. The procedure: as §1, §2
(Dilution methods test growth across graded concentrations, often in twofold steps.)

`C[C@@](CCc1cc(C#CC2CC2)on1)(C(=O)NO)S(C)(=O)=O` [amorphous Compound (A), (R)-4-(5-(cyclopropylethynyl)isoxazol-3-yl)-N-hydroxy-2-methyl-2-(methylsulfonyl)butanamide]: the “hygroscopicity / deliquescence (in words)” value in data set [1] is given as “significantly deliquescent”. The “colour stability on standing” value in data set [2] was “developed a brownish color over time; also recorded: tended to darken on standing at ambient temperature”.
On to `C[C@@](CCc1cc(C#CC2CC2)on1)(C(=O)NO)S(C)(=O)=O` [crystalline Compound (A), (R)-4-(5-(cyclopropylethynyl)isoxazol-3-yl)-N-hydroxy-2-methyl-2-(methylsulfonyl)butanamide], for which the “mass increase (hygroscopicity)” value in data set [1] (RH=90%) is given as 3.2%; in data set [1] (relative humidity (RH) of 80%), 1.3%. Besides, the “hygroscopicity / deliquescence (in words)” value in data set [1] is “low hygroscopicity”.
Take `C[C@@](CCc1cc(C#CC2CC2)on1)(C(=O)NO)S(C)(=O)=O` [A, (R)-4-(5-(cyclopropylethynyl)isoxazol-3-yl)-N-hydroxy-2-methyl-2-(methylsulfonyl)butanamide]: the MIC in data set [3] is 0.25 µg/mL; in data set [4] (ATCC 25922 / ATCC 29522, in presence of 2 μg/ml rifampicin, read-out: E.C. ATCC 29522 (+2 μg/ml RIF) MIC), not above 0.06 µg/mL; in data set [4] (ATCC25922, broth microdilution, 35° C., 20 hours, read-out: E.C. ATCC 25922 MIC), 2 µg/mL; in data set [5] (broth microdilution, 35° C., 20 hours, read-out: A.B. ATCC 19606 MIC) it was more than 64 µg/mL; in data set [5] (in presence of 2 μg/ml rifampicin, read-out: A.B. ATCC 19606 (+2 μg/ml RIF) MIC), 0.125 µg/mL.
